Test results: ChEMBL document CHEMBL1240316, “An oxidation-sensing mechanism is used by the global regulator MgrA in Staphylococcus aureus” (2006)
Calls of active or inactive are those of the source. The rule behind the calls is not given here.

What was measured:
Format in all cases: functional, organism-based
Staphylococcus aureus [1] = assay: Antimicrobial activity against Staphylococcus aureus expressing mgrA C12S mutant gene harboring Pyj335-His-mgrA assessed as visible growth at 0.65 ug/ml after 24 hrs
Staphylococcus aureus [2] = assay: Antimicrobial activity against Staphylococcus aureus expressing mgrA C12S mutant gene assessed as visible growth at 0.25 ug/ml after 24 hrs in presence of 20 uM paraquat
Staphylococcus aureus [3] = assay: Antimicrobial activity against Staphylococcus aureus assessed as visible growth at 0.20 ug/ml after 24 hrs in presence of 100 uM hydrogen peroxide
Staphylococcus aureus [4] = assay: Antimicrobial activity against Staphylococcus aureus expressing mgrA C12S mutant gene assessed as visible growth at 0.65 ug/ml after 24 hrs in presence of 20 uM paraquat
Staphylococcus aureus [5] = assay: Antimicrobial activity against Staphylococcus aureus expressing mgrA C12S mutant gene harboring plasmid Pyj335 assessed as visible growth at 0.25 ug/ml after 24 hrs
Staphylococcus aureus [6] = assay: Antimicrobial activity against Staphylococcus aureus expressing mgrAC12S mutant gene harboring plasmid Pyj335 assessed as visible growth at 0.55 ug/ml after 24 hrs
Staphylococcus aureus [7] = assay: Antimicrobial activity against Staphylococcus aureus expressing mgrA C12S mutant gene assessed as visible growth at 0.20 ug/ml after 24 hrs
Staphylococcus aureus [8] = assay: Antimicrobial activity against Staphylococcus aureus assessed as visible growth at 0.20 ug/ml after 24 hrs
Staphylococcus aureus [9] = assay: Antimicrobial activity against Staphylococcus aureus expressing mgrA C12S mutant gene assessed as visible growth at 0.45 ug/ml after 24 hrs in presence of 20 uM paraquat
Staphylococcus aureus [10] = assay: Antimicrobial activity against Staphylococcus aureus expressing mgrA C12S mutant gene harboring plasmid Pyj335 assessed as visible growth at 0.20 ug/ml after 24 hrs
Staphylococcus aureus [11] = assay: Antimicrobial activity against Staphylococcus aureus expressing mgrA C12S mutant gene harboring plasmid Pyj335 assessed as visible growth at 0.35 ug/ml after 24 hrs
Staphylococcus aureus [12] = assay: Antimicrobial activity against Staphylococcus aureus expressing mgrA C12S mutant gene assessed as visible growth at 0.35 ug/ml after 24 hrs in presence of 20 uM paraquat
Staphylococcus aureus [13] = assay: Antimicrobial activity against Staphylococcus aureus expressing mgrA C12S mutant gene harboring plasmid Pyj335 assessed as visible growth at 0.75 ug/ml after 24 hrs
Staphylococcus aureus [14] = assay: Antimicrobial activity against Staphylococcus aureus assessed as visible growth at 0.55 ug/ml after 24 hrs in presence of 20 uM paraquat
Staphylococcus aureus [15] = assay: Antimicrobial activity against Staphylococcus aureus expressing mgrA C12S mutant gene harboring Pyj335-His-mgrA assessed as visible growth at 0.65 ug/ml after 24 hrs in presence of 20 uM paraquat
Staphylococcus aureus [16] = assay: Antimicrobial activity against Staphylococcus aureus expressing mgrA C12S mutant gene harboring Pyj335-His-mgrA assessed as visible growth at 0.55 ug/ml after 24 hrs
Staphylococcus aureus [17] = assay: Antimicrobial activity against Staphylococcus aureus assessed as visible growth at 0.20 ug/ml after 24 hrs in presence of 25 uM paraquat
Staphylococcus aureus [18] = assay: Antimicrobial activity against Staphylococcus aureus assessed as visible growth at 0.65 ug/ml after 24 hrs
Staphylococcus aureus [19] = assay: Antimicrobial activity against Staphylococcus aureus expressing mgrA C12S mutant gene harboring plasmid Pyj335 assessed as visible growth at 0.65 ug/ml after 24 hrs in presence of 20 uM paraquat
Staphylococcus aureus [20] = assay: Antimicrobial activity against Staphylococcus aureus assessed as visible growth at 0.25 ug/ml after 24 hrs
Staphylococcus aureus [21] = assay: Antimicrobial activity against Staphylococcus aureus expressing mgrA C12S mutant gene harboring plasmid Pyj335 assessed as visible growth at 0.35 ug/ml after 24 hrs in presence of 20 uM paraquat
Staphylococcus aureus [22] = assay: Antimicrobial activity against Staphylococcus aureus expressing mgrA C12S mutant gene harboring plasmid Pyj335 assessed as visible growth at 1.4 ug/ml after 24 hrs
Staphylococcus aureus [23] = assay: Antimicrobial activity against Staphylococcus aureus expressing mgrAC12S mutant gene assessed as visible growth at 1.1 ug/ml after 24 hrs in presence of 100 uM hydrogen peroxide
Staphylococcus aureus [24] = assay: Antimicrobial activity against Staphylococcus aureus expressing mgrA C12S mutant gene harboring plasmid Pyj335 assessed as visible growth at 2.6 ug/ml after 24 hrs
Staphylococcus aureus [25] = assay: Antimicrobial activity against Staphylococcus aureus expressing mgrA C12S mutant gene harboring plasmid Pyj335 assessed as visible growth at 1.1 ug/ml after 24 hrs
Staphylococcus aureus [26] = assay: Antimicrobial activity against Staphylococcus aureus expressing mgrA C12S mutant gene assessed as visible growth at 1.1 ug/ml after 24 hrs in presence of 25 uM paraquat
Staphylococcus aureus [27] = assay: Antimicrobial activity against Staphylococcus aureus expressing mgrA C12S mutant gene harboring plasmid Pyj335 assessed as visible growth at 2.2 ug/ml after 24 hrs in presence of 20 uM paraquat
Staphylococcus aureus [28] = assay: Antimicrobial activity against Staphylococcus aureus assessed as visible growth at 1.8 ug/ml after 24 hrs in presence of 20 uM paraquat
Staphylococcus aureus [29] = assay: Antimicrobial activity against Staphylococcus aureus expressing mgrA C12S mutant gene assessed as visible growth at 2.6 ug/ml after 24 hrs
Staphylococcus aureus [30] = assay: Antimicrobial activity against Staphylococcus aureus expressing mgrA C12S mutant gene harboring Pyj335-His-mgrA assessed as visible growth at 0.6 ug/ml after 24 hrs
Staphylococcus aureus [31] = assay: Antimicrobial activity against Staphylococcus aureus expressing mgrA C12S mutant gene harboring plasmid Pyj335 assessed as visible growth at 1 ug/ml after 24 hrs
Staphylococcus aureus [32] = assay: Antimicrobial activity against Staphylococcus aureus expressing mgrAC12S mutant gene harboring plasmid Pyj335 assessed as visible growth at 1.1 ug/ml after 24 hrs in presence of 100 uM hydrogen peroxide
Staphylococcus aureus [33] = assay: Antimicrobial activity against Staphylococcus aureus expressing mgrA C12S mutant gene harboring Pyj335-His-mgrA assessed as visible growth at 1.4 ug/ml after 24 hrs in presence of 20 uM paraquat
Staphylococcus aureus [34] = assay: Antimicrobial activity against Staphylococcus aureus expressing mgrA C12S mutant gene harboring Pyj335-His-mgrA assessed as visible growth at 1 ug/ml after 24 hrs
Staphylococcus aureus [35] = assay: Antimicrobial activity against Staphylococcus aureus expressing mgrA C12S mutant gene harboring Pyj335-His-mgrA assessed as visible growth at 2.2 ug/ml after 24 hrs
Staphylococcus aureus [36] = assay: Antimicrobial activity against Staphylococcus aureus expressing mgrA C12S mutant gene harboring Pyj335-His-mgrA C12S assessed as visible growth at 1.1 ug/ml after 24 hrs in presence of 100 uM hydrogen peroxide
Staphylococcus aureus [37] = assay: Antimicrobial activity against Staphylococcus aureus expressing mgrA C12S mutant gene assessed as visible growth at 2.2 ug/ml after 24 hrs
Staphylococcus aureus [38] = assay: Antimicrobial activity against Staphylococcus aureus expressing mgrA C12S mutant gene assessed as visible growth at 1.8 ug/ml after 24 hrs
Staphylococcus aureus [39] = assay: Antimicrobial activity against Staphylococcus aureus assessed as visible growth at 1.1 ug/ml after 24 hrs
Staphylococcus aureus [40] = assay: Antimicrobial activity against Staphylococcus aureus expressing mgrA C12S mutant gene assessed as visible growth at 0.6 ug/ml after 24 hrs

## O=C(O)c1cn(C2CC2)c2cc(N3CCNCC3)c(F)cc2c1=O [CIPROFLOXACIN]
Staphylococcus aureus [1]
  Activity: Active
Staphylococcus aureus [2]
  Activity: inactive
Staphylococcus aureus [3]
  Activity: Active
Staphylococcus aureus [4]
  Activity: inactive
Staphylococcus aureus [5]
  Activity: inactive
Staphylococcus aureus [6]
  Activity: inactive
Staphylococcus aureus [7]
  Activity: inactive
Staphylococcus aureus [8]
  Activity: Active
Staphylococcus aureus [9]
  Activity: inactive
Staphylococcus aureus [10]
  Activity: inactive
Staphylococcus aureus [11]
  Activity: inactive
Staphylococcus aureus [12]
  Activity: inactive
Staphylococcus aureus [13]
  Activity: Active
Staphylococcus aureus [14]
  Activity: Active
Staphylococcus aureus [15]
  Activity: Active
Staphylococcus aureus [16]
  Activity: Active
Staphylococcus aureus [17]
  Activity: Active
Staphylococcus aureus [18]
  Activity: Active
Staphylococcus aureus [19]
  Activity: inactive
Staphylococcus aureus [20]
  Activity: inactive
Staphylococcus aureus [21]
  Activity: inactive

## CN[C@H](CC(C)C)C(=O)N[C@H]1C(=O)N[C@@H](CC(N)=O)C(=O)N[C@H]2C(=O)N[C@H]3C(=O)N[C@H](C(=O)N[C@H](C(=O)O)c4cc(O)cc(O)c4-c4cc3ccc4O)[C@H](O)c3ccc(c(Cl)c3)Oc3cc2cc(c3O[C@@H]2O[C@H](CO)[C@@H](O)[C@H](O)[C@H]2O[C@H]2C[C@](C)(N)[C@H](O)[C@H](C)O2)Oc2ccc(cc2Cl)[C@H]1O [VANCOMYCIN]
Staphylococcus aureus [22]
  Activity: inactive
Staphylococcus aureus [23]
  Activity: inactive
Staphylococcus aureus [24]
  Activity: Active
Staphylococcus aureus [25]
  Activity: inactive
Staphylococcus aureus [26]
  Activity: inactive
Staphylococcus aureus [27]
  Activity: inactive
Staphylococcus aureus [28]
  Activity: Active
Staphylococcus aureus [29]
  Activity: Active
Staphylococcus aureus [30]
  Activity: inactive
Staphylococcus aureus [31]
  Activity: inactive
Staphylococcus aureus [32]
  Activity: inactive
Staphylococcus aureus [33]
  Activity: inactive
Staphylococcus aureus [34]
  Activity: inactive
Staphylococcus aureus [35]
  Activity: Active
Staphylococcus aureus [36]
  Activity: Active
Staphylococcus aureus [37]
  Activity: inactive
Staphylococcus aureus [38]
  Activity: inactive
Staphylococcus aureus [39]
  Activity: Active
Staphylococcus aureus [40]
  Activity: inactive
